# How the values were obtained:
# [1] = target: T1, Chymotrypsinogen B (Homo sapiens, UniProt P17538); assay: Inhibition constant against alpha-chymotrypsin
# [2] = target: T1, Chymotrypsinogen B
# Description: (§1) Rate constant against alpha-chymotrypsin
# [3] = target: T1, Chymotrypsinogen B; remark: listed apart in the source
# Description: as §1
# [4] = target: T1, Chymotrypsinogen B; remark: listed apart in the source
# Description: Rate constant against alpha-chymotrypsin from time dependent inhibition and reactivation data
# [5] = target: T1, Chymotrypsinogen B; remark: listed apart in the source
# Description: Rate constant against Alpha-chymotrypsin from time dependent inhibition and reactivation data
# [6] = target: T1, Chymotrypsinogen B; assay: Inhibition constant against Alpha-chymotrypsin inhibitor was determined
# T1 sequence (P17538 34-164 limits assumed, other chains not shown): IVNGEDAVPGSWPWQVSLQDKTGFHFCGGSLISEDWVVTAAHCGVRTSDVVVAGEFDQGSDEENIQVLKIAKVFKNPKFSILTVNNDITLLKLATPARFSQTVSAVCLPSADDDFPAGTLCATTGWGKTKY
# T1 sequence (P17538 167-263 limits assumed, other chains not shown): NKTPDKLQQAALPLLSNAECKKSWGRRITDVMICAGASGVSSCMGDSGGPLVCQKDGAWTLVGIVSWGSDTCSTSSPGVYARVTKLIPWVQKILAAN
smiles,measurement,setting,value
O=C1C(=O)N(C(=O)OCc2ccccc2)c2ccccc21,Ki,[1],3.8 µM
same,k on,[2],254 M⁻¹ s⁻¹
same,k off,[3],0.00095 s⁻¹
same,k off,[4],4.01e-05 s⁻¹
same,k on,[5],7.63 M⁻¹ s⁻¹
CC(C)(C)OC(=O)N1C(=O)C(=O)c2ccccc21,Ki,[6],> 2000 µM

# Reference: ChEMBL document CHEMBL1128145, “N-(carbobenzyloxy)isatin: A slow binding -keto lactam inhibitor of -chymotrypsin” (Bioorg Med Chem Lett, 1995)
